Results on 3 molecules are retold here after patent publication US9486464B2, “Composition and method of manufacture” (Persavita Ltd, priority 2010, dated 2016).

In one series the test system is mammalian retina. The conditions noted are these: after exposure to damaging light; cited from earlier work.
For a further series, the system named is retina. The conditions noted are these: oral consumption in mice; cited from earlier work.
Series [1] has as its system vascular endothelial cells. The conditions noted are these: cited from earlier work.
The subject of a further series is primary human RPE cells. Briefly: Light-induced phototoxicity in primary human RPE cells, viability by MTT assay. Format: cell-based. The conditions noted are these: pre-treatment 100 μM crocin, 1 μM resveratrol or both; 300 mW/cm^2 for 60 min; FIG. 3.
The test system of a further series is human RPE cells. The conditions noted are these: cited from earlier work.
The subject of another series is mouse retina. The conditions noted are these: in vitro and in vivo, sirtuin-independent pathway; cited from earlier work.
The next series relates to primary RPE cells. Briefly: Toxicity testing on RPE cell cultures (MTT assay). The conditions noted are these: 24 hours of exposure; crocin 10 μM to 500 μM, resveratrol 0.1 μM to 25 μM. In general terms: Formazan colour is commonly taken as a measure of viable cells.
Series [2] concerns bovine and primate retinal cell cultures. The conditions noted are these: 160 μM crocin; cited from earlier work.

Description for primary RPE cells: (§1) When implementing the method, concentrations of 10 μM to 500 μM crocin and 0.1 μM to 25 μM resveratrol are beneficially employed for toxicity characterization. Moreover, concentrations of 100 μM crocin and 1 μM resveratrol are beneficially employed to investigate synergistic effects against light-induced phototoxicity with a final DMSO concentration of 0.1%. Beneficially, DMSO is added to cultures at 0.1% (v/v) as a solvent control.
Dulbecco-modified Eagle medium (DMEM, obtainable from Biochrom, Berlin, Germany) supplemented with 10% fetal calf serum (FCS, obtainable from Biochrom, Berlin, Germany) was used as the cell culture medium when undertaking the experimental tests.
For determining cell survival rate after the aforesaid illumination, the tetrazolium dye-reduction assay (MTT); 3-[4,5-methylthiazol-2-yl]-2,2-diphenyl tetrazolium bromide) is beneficially used for determining the cell survival rate after aforesaid illumination has been applied. […] The serum-free cell culture medium is beneficially removed, the cells then washed with PBS, and thereafter 1000 μL of MTT solution (1.5 mL MTT stock, 2 mg/mL in PBS, together with 28.5 mL MEM) added to each well in the cell culture. […] Thereafter, absorption is beneficially measured by employing a scanning multiwell spectrophotometer operating at an interrogating radiation wavelength of 550 nm (apparatus obtainable from Molecular Probes). […]
Description for primary human RPE cells: as §1
For preparing the cell culture medium, primary RPE cells from three human donors (obtained 3 to 10 hours postmortem) without any history of eye disease were obtained from the Eye Bank of Ludwig Maximilian University. Dulbecco-modified Eagle medium (DMEM, obtainable from Biochrom, Berlin, Germany) supplemented with 10% fetal calf serum (FCS, obtainable from Biochrom, Berlin, Germany) was used as the cell culture medium when undertaking the experimental tests. […]
The aforesaid illumination is beneficially obtained from a spot-light source (LC-8, obtainable from Hamamatsu Photonics, Japan), although other illumination sources are optionally employed. […] For obtaining accurate experimental measurements, the illumination power and spectral range of illumination employed for the tests are beneficially measured using a spectrometer (C10083MD, obtainable from Hamamatsu Photonics), although other measuring instruments may be optionally employed. […]

As for `CC1=C(/C=C/C(C)=C/C=C/C(C)=C/C=C/C=C(C)/C=C/C=C(C)/C=C/C2=C(C)CCCC2(C)C)C(C)(C)CCC1` [beta-carotene], the “retinal morphology and function” value in the series with mammalian retina is “ineffective for maintaining retinal function, and only improved morphology”.

Consider `Oc1ccc(/C=C/c2cc(O)cc(O)c2)cc1` [resveratrol, 3,5,4″-trihydroxystilbene], for which, in the series on retina, the “retinal degradation related to light damage” value is “capable of preventing retinal degradation”. The “proliferation and migration of vascular endothelial cells” value in series [1] was “inhibiting proliferation and migration”. For the same molecule, in the series with primary human RPE cells, the “decrease in viability of RPE cells after light exposure compared with cells not treated” value is listed as “significantly smaller decrease in viability”. The “effect on acrolein-induced oxidative stress” value with human RPE cells was “protective effects”. For the same molecule, the pathological angiogenesis result in the series with mouse retina is on record as “inhibit pathological angiogenesis”.

As to `CC(/C=C/C=C(\C)C(=O)O[C@@H]1O[C@H](CO[C@@H]2O[C@H](CO)[C@@H](O)[C@H](O)[C@H]2O)[C@@H](O)[C@H](O)[C@H]1O)=C\C=C\C=C(C)\C=C\C=C(/C)C(=O)O[C@@H]1O[C@H](CO[C@@H]2O[C@H](CO)[C@@H](O)[C@H](O)[C@H]2O)[C@@H](O)[C@H](O)[C@H]1O` [crocin], in the series on primary RPE cells, the “toxic effects in respect of RPE cell cultures” value is “no significant toxic effects”. In addition, in series [2], the “photoreceptors surviving light exposure” value is reported as “more than 90%”. Also, in the series on primary human RPE cells, the “decrease in viability of RPE cells after light exposure compared with cells not treated” value was “significantly smaller decrease in viability”.
